Experimental findings from ChEMBL document CHEMBL5614418, “Discovery of novel dihydropyrrolidone-thiadiazole compound crosstalk between the YycG/F two-component regulatory pathway and cell membrane homeostasis to combat methicillin-resistant Staphylococcus aureus” (Eur J Med Chem, 2024) are described below.

For orientation: MIC means the lowest concentration found to suppress growth. A high value points to a need for much substance. The term CC50 denotes the concentration at which the toxic effect on the cells reaches its halfway point. Usually HC50 stands for the concentration that lyses half of the red blood cells. Low readings indicate more damage to red cells, high ones less damage to red cells. As a reminder, the IC50 is the concentration that gives 50% inhibition. Low readings indicate inhibition by little substance, high ones a need for much substance.

Data set [1] has as its system Staphylococcus epidermidis. Kind of data set: Bactericidal activity against Staphylococcus epidermidis SE1457 assessed as planktonic cells killing by measuring log reduction in bacterial count at 8 times MIC measured after 24 hrs. In kind it is functional, organism-based.
Data set [2] has as its system Staphylococcus epidermidis. The data set can be described thus: Antibacterial activity against Staphylococcus epidermidis SE1457 by broth microdilution method. In kind it is functional.
In data set [3] the test system is Staphylococcus aureus. Kind of data set: Antibacterial activity against methicillin sensitive Staphylococcus aureus SA113 by broth microdilution method. In kind it is functional. For orientation: Broth dilution looks for growth in wells or tubes with falling amounts of substance.
The test system of data set [4] is Enterococcus faecalis. Kind of data set: Antibacterial activity against Enterococcus faecalis OG1RF by broth microdilution method. In kind it is functional.
The subject of data set [5] is Enterococcus faecium. Kind of data set: Antibacterial activity against Enterococcus faecium EFM64 by broth microdilution method. In kind it is functional.
In data set [6] the test system is Staphylococcus aureus. The data set can be described thus: Bactericidal activity against Staphylococcus aureus USA300 assessed as planktonic cells killing by measuring log reduction in bacterial count at 8 times MIC measured after 24 hrs. In kind it is functional, organism-based.
Data set [7] concerns Staphylococcus aureus. Kind of data set: Antibacterial activity against methicillin resistant Staphylococcus aureus USA300 by broth microdilution method. In kind it is functional.
Data set [8] concerns Staphylococcus epidermidis. Kind of data set: Induction of matured biofilm eradication in Staphylococcus epidermidis SE1457 assessed as reduction in bacterial survival in biofilm at 8 times MIC incubated for 48 hrs by SYTO 9 staining based confocal fluorescence microscopic analysis. In kind it is functional.
The test system of data set [9] is Staphylococcus aureus. The data set can be described thus: Induction of matured biofilm eradication in methicillin resistant Staphylococcus aureus YUSA145 assessed as reduction in bacterial survival in biofilm at 8 times MIC incubated for 48 hrs by SYTO 9 staining based confocal fluorescence microscopic analysis. In kind it is functional.
In data set [10] the test system is Staphylococcus aureus. Kind of data set: Antibacterial activity against methicillin resistant Staphylococcus aureus USA300 infected in BALB/c mouse wound model assessed as log reduction in wound bacterial load at 10 mg/kg, ip administered every 12 hrs for 3 times and measured after 48 hrs. In kind it is functional.
Data set [11] has as its system Staphylococcus epidermidis. Kind of data set: Antibacterial activity against methicillin resistant Staphylococcus epidermidis SE1457 infected in BALB/c mouse wound model assessed as log reduction in wound bacterial load at 10 mg/kg, ip administered every 12 hrs for 3 times and measured after 48 hrs. In kind it is functional.
In data set [12] the test system is Staphylococcus aureus. The data set can be described thus: Antibacterial activity against methicillin resistant Staphylococcus aureus USA300 infected in BALB/c mouse pneumonia model assessed as increase in mouse survival rate at 20 mg/kg, ip administered every 12 hrs for 3 times and measured after 48 hrs. In kind it is functional, organism-based.
The test system of data set [13] is Staphylococcus aureus. Kind of data set: Antibacterial activity against methicillin resistant Staphylococcus aureus USA300 infected in BALB/c mouse pneumonia model assessed as log reduction in lung bacterial count at 20 mg/kg, ip administered every 12 hrs for 3 times and measured after 48 hrs. In kind it is functional.
The nature of data set [14]: Cytotoxicity against human LX2 cells incubated for 24 hrs by CCK8 assay. In kind it is toxicity, cell-based. Particulars: LX-2 cells. (In general: Formazan colour is commonly taken as a measure of viable cells.)
Data set [15] in a line: Hemolytic activity against human erythrocytes measured after 1 hr. In kind it is toxicity, cell-based, Erythrocyte.
Data set [16] deals with T1, Sensor protein kinase WalK (Staphylococcus aureus, UniProt Q9RDT3).
T1 sequence (Q9RDT3 whole entry): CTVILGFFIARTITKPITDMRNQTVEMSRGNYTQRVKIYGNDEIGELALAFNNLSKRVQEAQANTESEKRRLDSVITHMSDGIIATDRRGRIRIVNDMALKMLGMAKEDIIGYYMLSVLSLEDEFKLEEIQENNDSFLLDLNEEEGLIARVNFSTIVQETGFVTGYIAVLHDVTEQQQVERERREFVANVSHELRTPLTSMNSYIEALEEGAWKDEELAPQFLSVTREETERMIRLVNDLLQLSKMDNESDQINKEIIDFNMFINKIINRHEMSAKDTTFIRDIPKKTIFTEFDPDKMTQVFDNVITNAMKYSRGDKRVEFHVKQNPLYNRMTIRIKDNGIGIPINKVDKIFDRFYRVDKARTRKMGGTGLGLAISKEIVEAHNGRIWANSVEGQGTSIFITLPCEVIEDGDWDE
The data set can be described thus: Inhibition of Staphylococcus aureus YycG expressed in Escherichia coli preincubated for 30 mins followed by ATP addition and measured after 30 mins by kinase-Glo luminescent assay.

Converted amounts (≈) assume the structure as drawn. The source made the active and inactive calls. The rule behind the calls is not given here.

In the case of `CCCCCCCCCC(=O)N[C@@H](Cc1c[nH]c2ccccc12)C(=O)N[C@H](CC(N)=O)C(=O)N[C@@H](CC(=O)O)C(=O)N[C@@H]1C(=O)NCC(=O)N[C@@H](CCCN)C(=O)N[C@@H](CC(=O)O)C(=O)N[C@H](C)C(=O)N[C@@H](CC(=O)O)C(=O)NCC(=O)N[C@H](CO)C(=O)N[C@@H]([C@H](C)CC(=O)O)C(=O)N[C@@H](CC(=O)c2ccccc2N)C(=O)O[C@@H]1C`, the outcome in [1] and in data set [6] was inactive. The minimal inhibitory concentration (MIC) in [2] is 2 µM (≈ 3.24 µg/mL); in [3], 2 µM (≈ 3.24 µg/mL); in data set [4] it was 2 µM (≈ 3.24 µg/mL); in data set [5] it was 2 µM (≈ 3.24 µg/mL); in data set [7] it was 2 µg/mL (≈ 1.23 µM). Besides, the Activity in data set [8] and in data set [9] was <50% each time. Also, the “log(activity)” value in data set [10] and in [11] was 1 each time.
For the molecule `CN[C@H](CC(C)C)C(=O)N[C@H]1C(=O)N[C@@H](CC(N)=O)C(=O)N[C@H]2C(=O)N[C@H]3C(=O)N[C@H](C(=O)N[C@H](C(=O)O)c4cc(O)cc(O)c4-c4cc3ccc4O)[C@H](O)c3ccc(c(Cl)c3)Oc3cc2cc(c3O[C@@H]2O[C@H](CO)[C@@H](O)[C@H](O)[C@H]2O[C@H]2C[C@](C)(N)[C@H](O)[C@H](C)O2)Oc2ccc(cc2Cl)[C@H]1O` [VANCOMYCIN], in data set [12], the result was Active. Besides, the “log(activity)” value in [13] was 2.
Regarding `COc1cc(C2C(C(=O)c3cc4ccccc4o3)=C(O)C(=O)N2c2nnc(SCc3ccccc3Cl)s2)ccc1O` (stereo not given), the MIC in [2] was 25 µM (≈ 15.2 µg/mL); in data set [3], > 100 µM; in data set [4] it was > 100 µM; in [5], > 100 µM. Further, in data set [14], the CC50 at 24 h is > 100 µM. In addition, in data set [15], the HC50 at 1 h was > 200 µM. In data set [16], this molecule displayed an IC50 of 46.1 µM.
